Results on 4 compounds are retold here after patent US9474790B2, “Stable, protracted GLP-1/glucagon receptor co-agonists for medical use” (Novo Nordisk A/S, priority 2013, dated 2016).

Data set [1] in a line: Chemical stability assessment by RP-UPLC. It is filed as physicochemical. The following applies: 333 μM, 8 mM phosphate buffer pH 7.3, 37° C. vs 5° C. In outline:
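Purity loss = (purity after 14 days at 5° C. minus that at 37° C.) relative to the 5° C. value, purity being main-peak area % by RP-UPLC with UV at 215 nm. Samples were 333 μM in 8 mM phosphate, pH 7.3; gradient adjusted for outlying retention times.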

The nature of data set [2]: Thioflavin T (ThT) fibrillation assay for physical stability. It is filed as physicochemical. The following applies: 250 μM in 10 mM HEPES buffer, pH 7.5, 37° C., shaking 960 rpm. In outline: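 Peptide at 250 μM in 10 mM HEPES pH 7.5 with 1 μM ThT, at 37° C with 960 rpm orbital shaking. Fluorescence (ex 444/em 485 nm) read every 20 min after 10 min pre-incubation; sigmoidal fit gives lag time (t0−2τ) and kapp (1/τ). Recovery is RP-HPLC peptide in the centrifuged, 0.22 μm-filtered supernatant as % of initial.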

Numbered stars: 1 amine (or outer) side, 2 acyl side, 3 side chain; on linkers, the order of the positions; unused ones are H or OH. Square brackets hold non-standard residues; d marks the D form. Side chains are listed from the residue outwards. Peptide text beside a SMILES is read from it. * marks the point of attachment. C18 diacid = O=C(O)CCCCCCCCCCCCCCCCC(=O)*; γGlu = O=C(O)[C@H](CCC(=O)[*:2])N[*:1]; Ac4c = NC1(C(=O)O)CCC1; AEEA = NCCOCCOCC(=O)O; Aib = CC(C)(N)C(=O)O

Consider `CC(C)C[C@H](NC(=O)[C@H](Cc1ccc(O)cc1)NC(=O)[C@H](CCCCN)NC(=O)[C@H](CO)NC(=O)[C@H](CC(C)C)NC(=O)[C@H](CC(=O)O)NC(=O)[C@H](CO)NC(=O)[C@@H](NC(=O)[C@H](Cc1ccccc1)NC(=O)[C@@H](NC(=O)CNC(=O)[C@H](CCC(N)=O)NC(=O)C(C)(C)NC(=O)[C@@H](N)Cc1c[nH]cn1)[C@@H](C)O)[C@@H](C)O)C(=O)N[C@@H](CC(=O)O)C(=O)N[C@@H](C)C(=O)N[C@@H](CCCNC(=N)N)C(=O)N[C@@H](CCCNC(=N)N)C(=O)N[C@@H](C)C(=O)N[C@@H](CCCNC(=N)N)C(=O)N[C@@H](CC(=O)O)C(=O)N[C@@H](Cc1ccccc1)C(=O)N[C@H](C(=O)N[C@@H](CCC(N)=O)C(=O)N[C@@H](Cc1c[nH]c2ccccc12)C(=O)N[C@@H](CC(C)C)C(=O)N[C@@H](CC(C)C)C(=O)N[C@@H](CO)C(=O)N[C@@H](CCCCNC(=O)CC[C@H](NC(=O)CC[C@H](NC(=O)COCCOCCNC(=O)COCCOCCNC(=O)CC[C@H](NC(=O)CCCCCCCCCCCCCCCCC(=O)O)C(=O)O)C(=O)O)C(=O)O)C(N)=O)C(C)C` [Example 66, N^ε29-[(4S)-4-carboxy-4-[[(4S)-4-carboxy-4-[[2-[2-[2-[[2-[2-[2-[[(4S)-4-carboxy-4-(17-carboxyheptadecanoylamino)butanoyl]amino]ethoxy]ethoxy]acetyl]amino]ethoxy]ethoxy]acetyl]amino]butanoyl]amino]butanoyl]-[Aib2,Leu10,Ala16,Arg20,Leu27,Ser28,Lys29]-Glucagon amide] (H-H[Aib]QGTFTSDLSKYLDARRARDFVQWLLSK([γGlu-γGlu-AEEA-AEEA-γGlu-C18 diacid])-NH2; N-terminus assumed), for which the “Purity loss; 14 days at 37° C.” value in data set [1] amounted to 2%. The compound further came in with a THT assay Lag time (Ex. 76) in data set [2] of 45 h.

For `CC(C)C[C@H](NC(=O)[C@H](Cc1ccc(O)cc1)NC(=O)[C@H](CCCCN)NC(=O)[C@H](CO)NC(=O)[C@H](CC(C)C)NC(=O)[C@H](CC(=O)O)NC(=O)[C@H](CO)NC(=O)[C@@H](NC(=O)[C@H](Cc1ccccc1)NC(=O)[C@@H](NC(=O)CNC(=O)[C@H](CCC(N)=O)NC(=O)C(C)(C)NC(=O)[C@@H](N)Cc1c[nH]cn1)[C@@H](C)O)[C@@H](C)O)C(=O)N[C@@H](CCC(=O)O)C(=O)N[C@@H](CO)C(=O)N[C@@H](CCCNC(=N)N)C(=O)N[C@@H](CCCNC(=N)N)C(=O)N[C@@H](C)C(=O)N[C@@H](CCCNC(=N)N)C(=O)N[C@@H](CCC(=O)O)C(=O)N[C@@H](Cc1ccccc1)C(=O)N[C@H](C(=O)N[C@@H](CCC(N)=O)C(=O)N[C@@H](Cc1c[nH]c2ccccc12)C(=O)N[C@@H](CC(C)C)C(=O)N[C@@H](CC(C)C)C(=O)N[C@@H](CCCCNC(=O)CC[C@H](NC(=O)CC[C@H](NC(=O)[C@H](CO)NC(=O)[C@H](CCC(=O)O)NC(=O)[C@H](CO)NC(=O)CC[C@H](NC(=O)CC[C@H](NC(=O)CCCCCCCCCCCCCCCCC(=O)O)C(=O)O)C(=O)O)C(=O)O)C(=O)O)C(=O)N[C@H](C(N)=O)[C@@H](C)O)C(C)C` [Example 67, N^ε28-[(4S)-4-carboxy-4-[[(4S)-4-carboxy-4-[[(2S)-2-[[(2S)-4-carboxy-2-[[(2S)-2-[[(4S)-4-carboxy-4-[[(4S)-4-carboxy-4-(17-carboxyheptadecanoylamino)butanoyl]amino]butanoyl]amino]-3-hydroxypropanoyl]amino]butanoyl]amino]-3-hydroxypropanoyl]amino]butanoyl]amino]butanoyl]-[Aib2,Leu10,Glu15,Arg20,Glu21,Leu27,Lys28]-Glucagon amide] (H-H[Aib]QGTFTSDLSKYLESRRAREFVQWLLK([γGlu-γGlu-Ser-Glu-Ser-γGlu-γGlu-C18 diacid])T-NH2; N-terminus assumed), the “Purity loss; 14 days at 37° C.” value in data set [1] was found to be 4%. In data set [2], this compound returned a THT assay Lag time (Ex. 76) of 45 h.

Consider `CC(C)C[C@H](NC(=O)[C@H](Cc1ccc(O)cc1)NC(=O)[C@H](CCCCN)NC(=O)[C@H](CO)NC(=O)[C@H](CC(C)C)NC(=O)[C@H](CC(=O)O)NC(=O)[C@H](CO)NC(=O)[C@@H](NC(=O)[C@H](Cc1ccccc1)NC(=O)[C@@H](NC(=O)CNC(=O)[C@H](CCC(N)=O)NC(=O)C1(NC(=O)[C@@H](N)Cc2c[nH]cn2)CCC1)[C@@H](C)O)[C@@H](C)O)C(=O)N[C@@H](CCC(=O)O)C(=O)N[C@@H](CO)C(=O)N[C@@H](CCCCN)C(=O)N[C@@H](CCCNC(=N)N)C(=O)N[C@@H](C)C(=O)N[C@@H](CCCNC(=N)N)C(=O)N[C@@H](CCC(=O)O)C(=O)N[C@@H](Cc1ccccc1)C(=O)N[C@H](C(=O)N[C@@H](CCC(N)=O)C(=O)N[C@@H](Cc1c[nH]c2ccccc12)C(=O)N[C@@H](CC(C)C)C(=O)N[C@@H](CC(C)C)C(=O)N[C@@H](CCCCNC(=O)CC[C@H](NC(=O)CC[C@H](NC(=O)[C@H](CO)NC(=O)[C@H](CCC(=O)O)NC(=O)[C@H](CO)NC(=O)CC[C@H](NC(=O)CC[C@H](NC(=O)CCCCCCCCCCCCCCCCC(=O)O)C(=O)O)C(=O)O)C(=O)O)C(=O)O)C(=O)N[C@H](C(N)=O)[C@@H](C)O)C(C)C` [Example 68, N^ε28-[(4S)-4-carboxy-4-[[(4S)-4-carboxy-4-[[(2S)-2-[[(2S)-4-carboxy-2-[[(2S)-2-[[(4S)-4-carboxy-4-[[(4S)-4-carboxy-4-(17-carboxyheptadecanoylamino)butanoyl]amino]butanoyl]amino]-3-hydroxypropanoyl]amino]butanoyl]amino]-3-hydroxypropanoyl]amino]butanoyl]amino]butanoyl]-[Acb2,Leu10,Glu15,Lys17,Arg20,Glu21,Leu27,Lys28]-Glucagon amide] (H-H[Ac4c]QGTFTSDLSKYLESKRAREFVQWLLK([γGlu-γGlu-Ser-Glu-Ser-γGlu-γGlu-C18 diacid])T-NH2; N-terminus assumed), for which the “Purity loss; 14 days at 37° C.” value in data set [1] is given as 3%. This compound showed a THT assay Lag time (Ex. 76) in data set [2] of 45 h.

Turning to `CC(C)C[C@H](NC(=O)[C@H](Cc1ccc(O)cc1)NC(=O)[C@H](CCCCN)NC(=O)[C@H](CO)NC(=O)[C@H](CC(C)C)NC(=O)[C@H](CC(=O)O)NC(=O)[C@H](CO)NC(=O)[C@@H](NC(=O)[C@H](Cc1ccccc1)NC(=O)[C@@H](NC(=O)CNC(=O)[C@H](CCC(N)=O)NC(=O)C(C)(C)NC(=O)[C@@H](N)Cc1c[nH]cn1)[C@@H](C)O)[C@@H](C)O)C(=O)N[C@@H](CCC(=O)O)C(=O)N[C@@H](CO)C(=O)N[C@@H](CCCCN)C(=O)N[C@@H](CCCNC(=N)N)C(=O)N[C@@H](C)C(=O)N[C@@H](CCCNC(=N)N)C(=O)N[C@@H](CO)C(=O)N[C@@H](Cc1ccccc1)C(=O)N[C@H](C(=O)N[C@@H](CCC(N)=O)C(=O)N[C@@H](Cc1c[nH]c2ccccc12)C(=O)N[C@@H](CC(C)C)C(=O)N[C@@H](CC(C)C)C(=O)N[C@@H](CCCCNC(=O)CC[C@H](NC(=O)CC[C@H](NC(=O)[C@H](CO)NC(=O)[C@H](CCC(=O)O)NC(=O)[C@H](CO)NC(=O)CC[C@H](NC(=O)CC[C@H](NC(=O)CCCCCCCCCCCCCCCCC(=O)O)C(=O)O)C(=O)O)C(=O)O)C(=O)O)C(=O)N[C@H](C(N)=O)[C@@H](C)O)C(C)C` [Example 69, N^ε28-[(4S)-4-carboxy-4-[[(4S)-4-carboxy-4-[[(2S)-2-[[(2S)-4-carboxy-2-[[(2S)-2-[[(4S)-4-carboxy-4-[[(4S)-4-carboxy-4-(17-carboxyheptadecanoylamino)butanoyl]amino]butanoyl]amino]-3-hydroxypropanoyl]amino]butanoyl]amino]-3-hydroxypropanoyl]amino]butanoyl]amino]butanoyl]-[Aib2,Leu10,Glu15,Lys17,Arg20,Ser21,Leu27,Lys28]-Glucagon amide] (H-H[Aib]QGTFTSDLSKYLESKRARSFVQWLLK([γGlu-γGlu-Ser-Glu-Ser-γGlu-γGlu-C18 diacid])T-NH2; N-terminus assumed), the “Purity loss; 14 days at 37° C.” value in data set [1] was 2%. The same compound registered a THT assay Lag time (Ex. 76) in data set [2] of 45 h.
